Here are results for 1 cell line from the supplement of paper PMC10307832.

Test in all cases: relative viability (nuclei count vs DMSO), 5 days (fraction); higher = more cells survive
Compound in the assay “QS11 + Linsitinib”: C1CC2=C(C1)C=C(C=C2)OC3=NC(=C4C(=N3)N(C=N4)CC5=CC=C(C=C5)C6=CC=CC=C6)N[C@@H](CC7=CC=CC=C7)CO [QS11] + C[C@]1(O)C[C@@H](c2nc(-c3ccc4ccc(-c5ccccc5)nc4c3)c3c(N)nccn32)C1 [Linsitinib] (partner 1 µM)
A digest of the protocol:
(§1)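 Lung cancer cell lines were seeded in 1536-well plates and dosed by pin tool the next day, with either a single drug or a fixed anchor-drug dose combined with five library-drug doses (not always all listed) spaced in √10 steps. Five days later, one step fixed the cells and stained their nuclei (final 0.05% Triton X-100, 1% formaldehyde, 1 ug/ml Hoechst), and nuclei were counted on 4× images. Relative viability is the nuclei count in treated wells divided by the count in vehicle wells, and each value is the median of duplicate plates.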

Compound in the assay “AZ628 + Dasatinib”: CC1=C(C=C(C=C1)NC(=O)C2=CC(=CC=C2)C(C)(C)C#N)NC3=CC4=C(C=C3)N=CN(C4=O)C [AZ628] + Cc1nc(Nc2ncc(C(=O)Nc3c(C)cccc3Cl)s2)cc(N2CCN(CCO)CC2)n1 [Dasatinib] (partner 0.075 µM)
A digest of the protocol: as §1

Compound in the assay “Darinaparsin + Alpelisib”: C[As](C)SC[C@H](NC(=O)CC[C@H](N)C(=O)O)C(=O)NCC(=O)O [Darinaparsin] + Cc1nc(NC(=O)N2CCC[C@H]2C(N)=O)sc1-c1ccnc(C(C)(C)C(F)(F)F)c1 [Alpelisib] (partner 2 µM)
A digest of the protocol:
as §1

Compound in the assay “Darinaparsin + AZD7762”: C[As](C)SC[C@H](NC(=O)CC[C@H](N)C(=O)O)C(=O)NCC(=O)O [Darinaparsin] + NC(=O)Nc1cc(-c2cccc(F)c2)sc1C(=O)N[C@H]1CCCNC1 [AZD7762] (partner 0.2 µM)
An outline of the steps:
as §1

Turning to LCLC-97TM1, the relative viability was determined as 0.15 with QS11 + Linsitinib (first compound 0.08 µM); 0.17 with QS11 + Linsitinib (first compound 0.253 µM); 0.233 in the assay with QS11 + Linsitinib (first compound 0.8 µM); 0.237 with QS11 + Linsitinib (first compound 2.53 µM); 0.293 with QS11 + Linsitinib (first compound 8 µM); 0.769 with AZ628 + Dasatinib (first compound 0.08 µM). Moreover, the relative viability with AZ628 + Dasatinib (first compound 0.253 µM) was 0.791; in the assay with AZ628 + Dasatinib (first compound 0.8 µM) it was 0.508; with AZ628 + Dasatinib (first compound 2.53 µM) it was 0.477; with AZ628 + Dasatinib (first compound 8 µM) it was 0.168; in the assay with Darinaparsin + Alpelisib (first compound 0.08 µM), 0.244; with Darinaparsin + Alpelisib (first compound 0.8 µM) it was 0.237. The relative viability with Darinaparsin + Alpelisib (first compound 2.53 µM) is 0.19; in the assay with Darinaparsin + Alpelisib (first compound 8 µM), 0.26; with Darinaparsin + AZD7762 (first compound 0.08 µM), 0.128; with Darinaparsin + AZD7762 (first compound 0.8 µM), 0.247; in the assay with Darinaparsin + AZD7762 (first compound 2.53 µM) it was 0.314; with Darinaparsin + AZD7762 (first compound 8 µM), 0.254.
